Test results as given in patent publication US20250034159A1, “INHIBITORS OF EPIDERMAL GROWTH FACTOR RECEPTOR” (ORIC Pharmaceuticals, Inc., priority 2021, published 2025).
Like-named read-outs stand apart in the source and are kept apart here.

What was measured:
Ba/F3_EGFR WT cells = experiment: Biological Activity Assay D: BaF3 cell proliferation assay, EGFR wild-type (BaF3 WT); assay type: cell-based; conditions: Ba/F3 EGFR, read-out: BaF3 WT IC50
Description: (§1) One frozen vial of cells should be thawed into one T25 flask in 10 mL media. Keep the flask upright in the incubator.
(§2) Method: One frozen vial of cells was thawed into one T25 flask in 10 mL media and the flask was kept upright in the incubator. Cells were split 1:10 every two to three days when cells reached confluency of around 1×10^6 cells/mL. Bravo protocol files were used with Greiner 384-well plates for all steps of compound preparation, cell plating and compound addition. […] 16 μL of DMSO were added (for compounds starting at 20 μM) or 28 μL DMSO (for compounds starting at 5 μM) to 96-well V-bottom polypropylene plate: wells 1A-1H (8 compounds/plate). […] 20 μL DMSO were added to the remainder of the wells (columns 2-12) in the 96-well V-bottom plate. A Bravo liquid handler was used to make 1:3 serial dilutions from columns 1 to 11 (12 remains as DMSO only) to prepare the DMSO dilution plate. 144 μL media were added to each well of a new 96-well V-bottom polypropylene plate to prepare the intermediate dilution plate. A Bravo or 96-head Integra liquid handler was used to add and mix 6 μL of test compound from the DMSO dilution plate to the intermediate dilution plate. (1:25 dilution). Cells were transferred from a flask into a 50 mL conical, vortex gently and the number of cells were counted, with a target cell number of about 1×10^6 cells per mL. The cells were diluted in culture medium in 50 mL conical or T25 flask, and the cell suspension was added to BRAVO reservoir and then use Bravo protocol to plate the appropriate number of cells shown below in 36 μl of medium per well as follows: Ba/F3-WT-EGFR 2000 cells per well of a 384 well plate; Ba/F3-LR/CS-EGFR 2000 cells per well of a 384 well plate; and Ba/F3-d19/CS-EGFR 1500 cells per well of a 384 well plate. An extra 10 mL of dead volume was utilized in each reservoir.
(§3) Using a Bravo liquid handler, 4 μl of test compound solution was added per well from the intermediate dilution plate to plated cells (1:10 dilution from the intermediate plate, final compound dilution 1:250 and final DMSO concentration per well is 0.4%). Using the 96 BRAVO Head, 25 μl were aspirated from the intermediate dilution plate and 4 μl each were dispensed into 4 wells (square pattern) in the 384-well plate. Any remaining test compound is dispensed into a secondary plate to prevent cross contamination of cells in the intermediate compound plate. After the compounds were added, the plate was shaken at 600 rpm gently for 60 see, and the plates were incubated in a tissue culture incubator, 37° C., 5% CO2, for ˜ 72 hours. After incubation, CTG 2.0 reagent was allowed to equilibrate to room temperature (˜3 hours) and cells to reach room temperature (˜10-15 minutes) and reagent was added to cells (40 μL/well) using a Bravo liquid handler. The plates were shaken to allow proper mixing (˜5 min) and let settle for 10 minutes and were read on Tecan plate reader using the appropriate luminescence method. Data from plate reader was transferred to an excel file and entered directly into Dotmatics using the protocols under EGFR Project/Cell Proliferation/named: “BaF3_EGFRwt_CP”, “BaF3_EGFR_d19/CS_CP”, “BaF3_EGFR_LR/CS_CP”. Curves were fit with a 4-parameter model and IC50s calculated by the Dotmatics software. DMSO wells were averaged to define the high control (100% growth). The average of the highest concentration of the positive control compound (afatinib) was used to define the 0% growth and used to lock the bottom of the curves. The tops of the curves were not fixed.

BaF3_EGFR d19/CS cells = experiment: Biological Activity Assay D: BaF3 cell proliferation assay, EGFR exon 19 deletion/C797S (BaF3 d19/CS); assay type: cell-based; conditions: Ba/F3 EGFR, read-out: BaF3 d19/CS IC50
Description: as §1, §2, §3

BaF3_EGFR LR/CS cells = experiment: Biological Activity Assay D: BaF3 cell proliferation assay, EGFR L858R/C797S mutant (BaF3 LR/CS); assay type: cell-based; conditions: Ba/F3 EGFR, read-out: BaF3 LR/CS IC50
Description: as §1, §2, §3

[1] = biological target: recombinant human EGFR exon 19 deletion/C797S double mutant protein (Homo sapiens (Human), UniProt P00533, C797S/DEL746-750); experiment: Biological Activity Assay C: biochemical assay against EGFR exon 19 deletion/C797S protein (EGFR d19/CS)
Sequence of recombinant human EGFR exon 19 deletion/C797S double mutant protein (P00533 other isoform, or with tags, fused parts or gaps C797S/del 1-668/del 746-750 limits assumed): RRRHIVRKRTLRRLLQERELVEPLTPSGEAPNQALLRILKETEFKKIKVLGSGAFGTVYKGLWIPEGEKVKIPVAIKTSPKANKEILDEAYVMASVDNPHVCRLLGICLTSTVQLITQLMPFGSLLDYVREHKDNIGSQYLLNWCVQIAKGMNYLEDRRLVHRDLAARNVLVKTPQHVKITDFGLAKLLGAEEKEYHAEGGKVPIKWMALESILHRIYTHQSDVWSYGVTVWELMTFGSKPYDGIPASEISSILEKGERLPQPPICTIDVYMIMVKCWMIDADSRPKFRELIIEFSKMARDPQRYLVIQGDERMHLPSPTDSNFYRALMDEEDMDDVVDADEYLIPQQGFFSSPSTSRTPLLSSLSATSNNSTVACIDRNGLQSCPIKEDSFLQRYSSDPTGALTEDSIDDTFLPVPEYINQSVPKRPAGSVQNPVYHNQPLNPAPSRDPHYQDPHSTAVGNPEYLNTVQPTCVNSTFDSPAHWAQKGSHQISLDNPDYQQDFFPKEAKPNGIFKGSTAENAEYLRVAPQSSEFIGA
Description: In Row A of a 384-well polypropylene plate, was added 48 μL of DMSO. In wells A1 and A24, were added 12 μL of DMSO. […] To a well in Row A were added 12 μL of each 10 mM test compound stock (100% DMSO). […] The final intermediate dilution plate contained 4×16-point compound serial dilutions in assay buffer. The DMSO concentration was 10%. The intermediate compound dilution plate was transferred to the Bravo and the “5 uL dispense into ARP.pro” protocol was run. To the black low volume assay ready plates, were added 5 μL of 40 uM Phosphosens peptide sensor/4 mM ATP working solution to each well. […] To column 24, was added 10 μL of assay buffer. The final DMSO concentration was 2.5%. […] The plates were sealed with the TopSeal-A Plus plate seals. […] Set for 90 cycles with 120 second interval. […] The slope of each curve was constructed using Dotmatics in each well, and each IC50s was calculated using a 4-parameter fit model.

[2] = Ba/F3_EGFR WT cells, ~72 hours, CellTiter-Glo
[3] = BaF3_EGFR d19/CS cells, ~72 hours, CellTiter-Glo
[4] = BaF3_EGFR LR/CS cells, ~72 hours, CellTiter-Glo

| SMILES | IC50 (Ba/F3_EGFR WT cells; [2]) | IC50 (BaF3_EGFR d19/CS cells; [3]) | IC50 (BaF3_EGFR LR/CS cells; [4]) | IC50 [1] | IC50 (Ba/F3_EGFR WT cells; 72 h) | IC50 (BaF3_EGFR d19/CS cells; 72 h) | IC50 (BaF3_EGFR LR/CS cells; 72 h) |
| --- | --- | --- | --- | --- | --- | --- | --- |
| O=S1(=O)CC(n2cc(-c3ncnc4oc(-c5cncnc5)cc34)c(-c3ccc(F)cc3)n2)C1 [Example 175, 3-{3-(4-fluorophenyl)-4-[6-(pyrimidin-5-yl)furo[2,3-d]pyrimidin-4-yl]-1H-pyrazol-1-yl}-1λ6-thietane-1,1-dione] | 11700 nM | 248 nM | 472 nM | 6.08 nM | – | – | – |
| Cn1cncc1-c1cc2c(-c3cn(C4CS(=O)(=O)C4)nc3-c3ccc(F)cc3)ncnc2o1 [Example 217, 3-{3-(4-fluorophenyl)-4-[6-(1-methyl-1H-imidazol-5-yl)furo[2,3-d]pyrimidin-4-yl]-1H-pyrazol-1-yl}-16-thietane-1,1-dione] | – | – | – | 0.276 nM | 1240 nM | 98.9 nM | 147 nM |
| Cc1ncc(-c2cc3c(-c4cn(C5CS(=O)(=O)C5)nc4-c4ccc(F)cc4)ncnc3o2)s1 [Example 224, 3-{3-(4-fluorophenyl)-4-[6-(2-methyl-1,3-thiazol-5-yl)furo[2,3-d]pyrimidin-4-yl]-1H-pyrazol-1-yl}-16-thietane-1,1-dione] | – | – | – | 0.14 nM | 1450 nM | 37.7 nM | 26.6 nM |
| Cc1nn(C)cc1-c1cc2c(-c3cn(C4CS(=O)(=O)C4)nc3-c3ccc(F)cc3)ncnc2o1 [Example 242, 3-{4-[6-(1,3-dimethyl-1H-pyrazol-4-yl)furo[2,3-d]pyrimidin-4-yl]-3-(4-fluorophenyl)-1H-pyrazol-1-yl}-16-thietane-1,1-dione] | 533 nM | 10.8 nM | 8.34 nM | 0.18 nM | – | – | – |
| [2H]C([2H])([2H])n1cc(-c2ncnc3oc(-c4ccccc4)cc23)c(-c2ccc(F)cc2)n1 [Example 48, 4-[3-(4-Fluorophenyl)-1-(2H3)methyl-1H-pyrazol-4-yl]-6-phenylfuro[2,3-d]pyrimidine] | – | – | – | – | 2210 nM | 47.9 nM | 60.4 nM |
| Fc1ccc(-n2nccc2-c2ccnc3[nH]c(-c4ccccc4)cc23)cc1 [Example 1, 4-[1-(4-fluorophenyl)-1H-pyrazol-5-yl]-2-phenyl-1H-pyrrolo[2,3-b]pyridine] | 2570 nM | 211 nM | 349 nM | – | – | – | – |
| Fc1ccc(-c2nn(CCOC(F)(F)F)cc2-c2ncnc3oc(-c4ccccc4)cc23)cc1 [Example 144, 4-{3-(4-Fluorophenyl)-1-[2-(trifluoromethoxy)ethyl]-1H-pyrazol-4-yl}-6-phenylfuro[2,3-d]pyrimidine] | 1610 nM | 89.6 nM | 33.6 nM | – | – | – | – |
| O=S1(=O)CCC(n2cc(-c3ncnc4oc(-c5ccccc5)cc34)c(-c3ccc(F)cc3)n2)CC1 [Example 83, 4-[3-(4-fluorophenyl)-4-(6-phenylfuro[2,3-d]pyrimidin-4-yl)-1H-pyrazol-1-yl]-1λ6-thiane-1,1-dione] | > 20000 nM | 640 nM | 529 nM | – | – | – | – |
| OCCCn1cc(-c2ccnc3cc(-c4ccccc4)[nH]c23)c(-c2ccc(F)cc2)n1 [Example 7, 3-[3-(4-Fluorophenyl)-4-(2-phenyl-1H-pyrrolo[3,2-b]pyridin-7-yl)-1H-pyrazol-1-yl]propan-1-ol] | 4710 nM | 508 nM | 694 nM | – | – | – | – |
| Fc1ccc(-c2nn(CCC(F)F)cc2-c2ccnc3oc(-c4ccccc4)cc23)cc1 [Example 157, 4-[1-(3,3-difluoropropyl)-3-(4-fluorophenyl)-1H-pyrazol-4-yl]-2-phenylfuro[2,3-b]pyridine] | 1590 nM | 40.8 nM | 15.2 nM | – | – | – | – |
| Cn1cc(-c2ncnc3oc(-c4ccccc4)cc23)c(-c2ccc(F)cc2)n1 [Example 63, 4-[3-(4-Fluorophenyl)-1-methyl-1H-pyrazol-4-yl]-6-phenylfuro[2,3-d]pyrimidine] | – | – | – | – | 1270 nM | 48.5 nM | 35.4 nM |
| OCCCc1nc(-c2ccnc3[nH]c(-c4ccccc4)cc23)n(-c2ccc(F)cc2)n1 [Example 2, 3-[1-(4-Fluorophenyl)-5-(2-phenyl-1H-pyrrolo[2,3-b]pyridin-4-yl)-1H-1,2,4-triazol-3-yl]propan-1-ol] | 724 nM | 104 nM | 89.5 nM | – | – | – | – |

More lines, main results first:

| IC50 (Ba/F3_EGFR WT cells; [2]) | IC50 (BaF3_EGFR d19/CS cells; [3]) | IC50 (BaF3_EGFR LR/CS cells; [4]) | IC50 [1] | SMILES | IC50 (Ba/F3_EGFR WT cells; 72 h) | IC50 (BaF3_EGFR d19/CS cells; 72 h) | IC50 (BaF3_EGFR LR/CS cells; 72 h) |
| --- | --- | --- | --- | --- | --- | --- | --- |
| 1250 nM | 182 nM | 76.8 nM | 0.59 nM | CC1(C)C[C@@H](Cn2cc(-c3ncnc4oc(-c5ccccc5)cc34)c(-c3ccc(F)cc3)n2)O1 (single isomer, unassigned) [Example 222] | – | – | – |
| 1160 nM | 63.8 nM | 65 nM | 0.41 nM | CC(=O)N1C=C(c2cc3c(-c4cn(C5CS(=O)(=O)C5)nc4-c4ccc(F)cc4)ncnc3o2)CCC1 [Example 155, 3-{4-[6-(1-acetyl-1,4,5,6-tetrahydropyridin-3-yl)furo[2,3-d]pyrimidin-4-yl]-3-(4-fluorophenyl)-1H-pyrazol-1-yl}-1λ6-thietane-1,1-dione] | – | – | – |
| 1000 nM | 10.2 nM | 11.2 nM | 0.203 nM | CC(C)(O)Cn1cc(-c2ncnc3oc(-c4cnn5c4OCCC5(C)C)cc23)c(-c2ccc(F)cc2)n1 [Example 284, 1-(4-(6-(7,7-dimethyl-6,7-dihydro-5H-pyrazolo[5,1-b][,3]oxazin-3-yl)furo[2,3-d]pyrimidin-4-yl)-3-(4-fluorophenyl)-1H-pyrazol-1-yl)-2-methylpropan-2-ol] | – | – | – |
| 1390 nM | 63.7 nM | 94.4 nM | 0.5 nM | CC(=O)N1CC=C(c2cc3c(-c4cn(CC(C)(C)O)nc4-c4ccc(F)cc4)ncnc3o2)CC1 [Example 138, 1-[4-{4-[3-(4-Fluorophenyl)-1-(2-hydroxy-2-methylpropyl)-1H-pyrazol-4-yl]furo[2,3-d]pyrimidin-6-yl}-3,6-dihydropyridin-1 (2H)-yl]ethan-1-one] | – | – | – |
| 1010 nM | 20.8 nM | 18.2 nM | 0.2 nM | CC(C)(O)Cn1cc(-c2ncnc3oc(-c4ccccn4)cc23)c(-c2ccc(F)cc2)n1 [Example 257, 1-{3-(4-fluorophenyl)-4-[6-(pyridin-2-yl)furo[2,3-d]pyrimidin-4-yl]-1H-pyrazol-1-yl}-2-methylpropan-2-ol] | – | – | – |
| 1590 nM | 56.4 nM | 42 nM | – | O=S1(=O)CC(n2cc(-c3ncnc4oc(C5=CCN(S(=O)(=O)C6CC6)CC5)cc34)c(-c3ccc(F)cc3)n2)C1 [Example 177, 3-[4-{6-[1-(cyclopropanesulfonyl)-1,2,3,6-tetrahydropyridin-4-yl]furo[2,3-d]pyrimidin-4-yl}-3-(4-fluorophenyl)-1H-pyrazol-1-yl]-1λ6-thietane-1,1-dione] | – | – | – |
